{"source": "patent US11072633B2", "about": "(priority 2016, dated 2021)", "key": {"M. tuberculosis H37Rv": {"tested_on": "M. tuberculosis H37Rv", "assay_type": "cell-based"}, "[1]": {"tested_on": "FQ-R1 (fluoroquinolone-resistant strain derived from H37Rv, gyrA mutant D94N)", "assay_type": "cell-based, M. tuberculosis"}, "[2]": {"tested_on": "RIF-R1 (derived from H37Rv, rpoB mutant S522L)", "assay_type": "cell-based, M. tuberculosis"}, "[3]": {"tested_on": "INH-R1 (derived from H37Rv, katG mutant Y155*)", "assay_type": "cell-based, M. tuberculosis"}}, "note": "Where “and” joins values, the source holds several entries; their conditions need not be identical. Equal entries are not always repeated. Where two headings read alike, the source gives them in different places.", "data": [{"smiles": "COc1nc2ccc(Br)cc2cc1[C@@H](c1ccccc1)[C@@](O)(CCN(C)C)c1cccc2ccccc12", "note": "[BDQ, bedaquiline, reference compound]", "values": [{"measurement": "Frequencies of resistance", "setting": "M. tuberculosis H37Rv", "value": "5.5 × 10^−9 and 3.4 × 10^−7"}]}, {"smiles": "CCCN1CC2C(CC[C@@]3(C)C2CC[C@@H]3C(=O)Nc2cc(C(C)(C)C)ccc2C(C)(C)C)[C@@]2(C)CCC(=O)C=C12", "note": "(some centres unmarked) [Compound 114]", "values": [{"measurement": "Frequencies of resistance", "setting": "M. tuberculosis H37Rv; 114 5 × MIC with BDQ 5 × MIC", "value": "2 × 10^−7"}, {"measurement": "Frequencies of resistance", "setting": "M. tuberculosis H37Rv; 114 5 × MIC, BDQ none", "value": "3.6 × 10^−6"}, {"measurement": "Frequencies of resistance", "setting": "M. tuberculosis H37Rv; 114 10 × MIC with BDQ 10 × MIC", "value": "7.8 × 10^−8"}, {"measurement": "Frequencies of resistance", "setting": "M. tuberculosis H37Rv; 114 10 × MIC, BDQ none", "value": "1.1 × 10^−7"}]}, {"smiles": "NNC(=O)c1ccncc1", "note": "[INH, isoniazid]", "values": [{"measurement": "MIC FQ-R1", "setting": "[1]", "value": 0.29, "unit": "µM"}, {"measurement": "MIC RIF-R1", "setting": "[2]", "value": 0.20, "unit": "µM"}, {"measurement": "MIC INH-R1", "setting": "[3]", "value": ">200", "unit": "µM"}]}]}
